{"source": "PubChem BioAssay AID449750", "about": "(Broad Institute, 2010)", "note": "Active and inactive are the calls of the source. How the calls were made is not given here.", "data": [{"assay": "non-covalent RecA intein splicing inhibitors, dose response, biochemical, cell-free, fluorescence, secondary screen (AID 449750)", "values": [{"smiles": "CCC(=O)Oc1ccc(C(=O)Nc2cccc(C(=O)c3ccccc3)c2)cc1", "AC50": "32.8 µM"}, {"smiles": "Cc1cc(C(=O)CCl)c(C)n1CCc1ccccc1", "AC50": "14.2 µM"}, {"smiles": "CC(C)NC(=S)NC1(C)CCS(=O)(=O)C1", "note": "(centres undefined)", "AC50": "> 38 µM (inactive)"}, {"smiles": "COc1ccccc1-c1cn[nH]c(=S)n1", "AC50": "> 38 µM (inactive)"}, {"smiles": "COc1cc(OC)cc(-c2nnc(Sc3ccc(C=O)cc3[N+](=O)[O-])o2)c1", "AC50": "21.3 µM"}, {"smiles": "Cc1[nH]n(-c2ccccc2)c(=O)c1C(C[N+](=O)[O-])c1ccc(Br)cc1", "note": "(centres undefined)", "AC50": "11.1 µM"}, {"smiles": "Cc1nc(COC(=O)c2cc(O)c3ccccc3c2O)cs1", "AC50": "15.1 µM"}, {"smiles": "COc1cc(/C=C(\\C#N)C(=O)c2c[nH]c3ccccc23)cc(OC)c1O", "AC50": "> 38 µM (inactive)"}, {"smiles": "NC1=NN(c2cccc(C(=O)O)c2)C(=O)C1", "AC50": "29.4 µM"}, {"smiles": "Cc1c(Cl)cccc1NC(=S)/C(=C(\\[O-])c1ccc(Cl)s1)[n+]1ccccc1", "AC50": "> 38 µM (inactive)"}, {"smiles": "Cc1c(C#N)c(NC(=O)CCl)n(Cc2ccccc2)c1C", "AC50": "7.6 µM"}, {"smiles": "N#CC1=C(N)C(C#N)(C#N)C(c2cccnc2)C2CN(C(=O)OCc3ccccc3)CC=C12", "note": "(centres undefined)", "AC50": "> 38 µM (inactive)"}, {"smiles": "CCN1C(=O)c2c(C)nc3ccccc3c2C1=O", "AC50": "> 38 µM (inactive)"}, {"smiles": "O=C1C(Cl)=C(NCCN2CCCCC2)C(=O)c2ccccc21", "AC50": "13.3 µM"}, {"smiles": "CC(=O)N(C)Cc1ccc(C(=O)CCl)cc1", "AC50": "> 38 µM (inactive)"}, {"smiles": "O=C1NCN(c2ccccc2)C12CCN(CCCC(c1ccc(F)cc1)c1ccc(F)cc1)CC2", "AC50": "16.5 µM"}, {"smiles": "CC(C)c1[nH]nc2c1C(c1cccs1)C(C#N)=C(N)O2", "note": "(centres undefined)", "AC50": "> 38 µM (inactive)"}, {"smiles": "CC1=NN(c2ccccc2)C(=O)/C1=C\\c1ccc(Oc2ccc([N+](=O)[O-])cc2[N+](=O)[O-])cc1", "AC50": "3.48 µM"}, {"smiles": "Fc1ccc(Nc2nc(NCc3ccco3)c3ccccc3n2)cc1", "AC50": "7.39 µM"}, {"smiles": "Cc1ccc(N(CCC#N)C(=O)CCl)cc1C", "AC50": "11.5 µM"}, {"smiles": "COc1ccccc1-c1cc(C(F)(F)F)nc(S(=O)(=O)CCCC(=O)NCc2ccc(F)cc2)n1", "AC50": "6.03 µM"}, {"smiles": "O=C(CCl)N1N=C(c2ccco2)CC1c1ccco1", "note": "(centres undefined)", "AC50": "19.1 µM"}, {"smiles": "O=C(Cc1cc(=O)[nH][nH]1)N/N=C/c1c(F)cccc1Cl", "AC50": "30.7 µM"}, {"smiles": "Cc1[nH]nc2c1C(c1ccco1)C(C#N)=C(N)O2", "note": "(centres undefined)", "AC50": "> 38 µM (inactive)"}, {"smiles": "CCN(CC)C(=O)c1ccc2c(c1)C1C(Cl)C(Sc3ccccc3[N+](=O)[O-])CC1C(C(=O)O)N2", "note": "(centres undefined)", "AC50": "12.5 µM"}, {"smiles": "O=C(O)COc1ccccc1C(Nc1cccnc1)c1cc(Cl)c2cccnc2c1O", "note": "(centres undefined)", "AC50": "6.01 µM"}, {"smiles": "COc1ccc(C(=O)NC(=S)NNC(=O)CCc2ccccc2)cc1", "AC50": "> 38 µM (inactive)"}, {"smiles": "Cc1[nH]n(-c2ccccc2)c(=O)c1/C=C1\\C=NN=C1c1ccccc1", "AC50": "17 µM"}, {"smiles": "Cc1ccc(SCC2=NNC(=O)C2)cc1", "AC50": "31.5 µM"}, {"smiles": "O=[N+]([O-])c1ccc(N2CCCC(C(F)(F)F)C2)c2ccncc12", "note": "(centres undefined)", "AC50": "> 38 µM (inactive)"}, {"smiles": "CCOC(=O)CSc1nc2sc3c(c2c(=O)n1C1CCCCC1)CCN(C)C3", "AC50": "> 38 µM (inactive)"}, {"smiles": "Cc1ccccc1CS(=O)(=O)c1nnc([C@H](Cc2ccccc2)NC(=O)OC(C)(C)C)o1", "AC50": "> 38 µM (inactive)"}, {"smiles": "CC1=NN(c2ccc(C(=O)O)cc2)C(=O)/C1=C\\c1ccc(OC(=O)c2cccs2)cc1", "AC50": "2.25 µM"}, {"smiles": "Cc1ccccc1-c1nc(CN(C)C(C)c2ccon2)c(C)o1", "note": "(centres undefined)", "AC50": "> 38 µM (inactive)"}, {"smiles": "Cn1c(-c2ccccc2)c(C(=O)CCl)c2ccccc21", "AC50": "22.9 µM"}, {"smiles": "O=C(c1cc(F)c(F)cc1Cl)N1CCN(c2ccc([N+](=O)[O-])c3ncccc23)CC1", "AC50": "> 38 µM (inactive)"}, {"smiles": "Cc1ccc(C(c2c(C)[nH][nH]c2=O)c2c(C)[nH][nH]c2=O)cc1", "AC50": "8.37 µM"}, {"smiles": "Nc1ccc2ncccc2c1", "AC50": "15.5 µM"}, {"smiles": "CS/C(=C\\[N+](=O)[O-])Nc1ccc(Cl)cc1", "AC50": "> 38 µM (inactive)"}, {"smiles": "CN(C)c1ccc2nsnc2c1[N+](=O)[O-]", "AC50": "> 38 µM (inactive)"}, {"smiles": "OCCN(CCO)c1ccc(C(c2ccccc2Cl)c2ccc(N(CCO)CCO)cc2Cl)c(Cl)c1", "AC50": "4.12 µM"}, {"smiles": "COc1ccc(Cc2nccc3cc(OC)c(OC)cc23)cc1OC", "AC50": "> 38 µM (inactive)"}, {"smiles": "Cc1ccc(-c2nc(CN3CCCC(C(=O)N4CCOCC4)C3)c(C)o2)cc1", "note": "(centres undefined)", "AC50": "> 38 µM (inactive)"}, {"smiles": "N#CC1=C(N)C(C#N)(C#N)[C@H](c2c(F)cccc2F)[C@H]2CC3(CC=C12)OCCO3", "AC50": "> 38 µM (inactive)"}, {"smiles": "Cc1ccc(CN=Cc2[nH]c3ccc(Br)c(Cl)c3c2O)cc1", "AC50": "22.9 µM"}, {"smiles": "CCCCCc1cc(=O)oc2c(C(CCN3CCCC(C)C3)c3ccc4c(c3)OCO4)c(OC)cc(OC)c12", "note": "(centres undefined)", "AC50": "10.5 µM"}, {"smiles": "O=C(CCl)Nc1ccccc1C(=O)Nc1ccc2c(c1)OCO2", "AC50": "10.5 µM"}, {"smiles": "CN1CCN(C2=C(Cl)C(=O)N(c3ccc(Cl)cc3)C2=O)CC1", "AC50": "3.49 µM"}, {"smiles": "O=c1[nH]cc(NCCc2ccccc2)c(=O)[nH]1", "AC50": "> 38 µM (inactive)"}, {"smiles": "N#Cc1nccnc1S(=O)(=O)c1cccs1", "AC50": "> 38 µM (inactive)"}, {"smiles": "COc1cccc(NC(=O)CSc2c3c(nc4ccccc24)CCCC3)c1", "AC50": "39.5 µM"}, {"smiles": "Cc1ccccc1Nc1cc2ccccc2c(=O)[nH]1", "AC50": "1.54 µM"}, {"smiles": "O=C(CNC(=O)c1ccccc1)N/N=C/c1ccc([N+](=O)[O-])o1", "AC50": "> 38 µM (inactive)"}, {"smiles": "COC(=O)c1ccccc1S(=O)(=O)N1CCC(NC(=O)c2ccccc2)CC1", "AC50": "> 38 µM (inactive)"}]}]}
